Assay results as given in ChEMBL document CHEMBL3616435, “Cytotoxic cardenolides from the latex of Calotropis procera” (Bioorg Med Chem Lett, 2015).

What follows are molecules tested on Mycobacterium tuberculosis (assay: Antimicrobial activity against Mycobacterium bovis BCG after 3 days by broth microdilution method). Conditions: variant bovis BCG, 72 h.
Format: functional
`C[C@@H]1C[C@@H](O)[C@]2(O)O[C@@H]3C[C@@]4(C=O)[C@@H](CC[C@@H]5[C@@H]4CC[C@]4(C)[C@@H](C6=CC(=O)OC6)C[C@@H](O)[C@]54O)C[C@H]3O[C@@H]2C1` was tested, and the MIC was > 80 µg/mL.
`CO[C@@H]1C[C@@H](C)C[C@H]2O[C@@H]3C[C@@H]4CC[C@@H]5[C@H](CC[C@]6(C)[C@@H](C7=CC(=O)OC7)C[C@@H](O)[C@]56O)[C@@]4(C=O)C[C@H]3O[C@@]12O` was tested, and the MIC was > 80 µg/mL.
With `C[C@@H]1C[C@@H](O)[C@]2(O)O[C@@H]3C[C@@]4(C)[C@@H](CC[C@@H]5[C@@H]4CC[C@]4(C)[C@@H](C6=CC(=O)OC6)C[C@@H](O)[C@]54O)C[C@H]3O[C@@H]2C1` the MIC was > 80 µg/mL.
In the case of `C[C@H]1C[C@H]2O[C@@H]3C[C@@H]4CC[C@@H]5[C@H](CC[C@]6(C)[C@@H](C7=CC(=O)OC7)CC[C@]56O)[C@@]4(C=O)C[C@H]3O[C@@]2(O)[C@H](O)[C@@H]1O`, the MIC is reported as > 80 µg/mL.
In the case of `C[C@H]1C[C@H]2O[C@@H]3C[C@@H]4CC[C@@H]5[C@H](CC[C@]6(C)[C@@H](C7=CC(=O)OC7)C[C@@H](O)[C@]56O)[C@@]4(C=O)C[C@H]3O[C@@]2(O)[C@@]2(C1)N=CCS2`, the MIC is reported as > 80 µg/mL.
`C[C@]12[C@H](O)C[C@H]3[C@@H](CC[C@H]4C[C@H](O)CC[C@@]43CO)[C@@]1(O)CC[C@@H]2C1=CC(=O)OC1` was tested, and the MIC was > 80 µg/mL.
For `C[C@]12[C@H](O)C[C@H]3[C@@H](CC[C@H]4C[C@H](O)CC[C@@]43C=O)[C@@]1(O)CC[C@@H]2C1=CC(=O)OC1`, the MIC was > 80 µg/mL.
`C[C@]12C[C@@H](O)[C@H](O)C[C@@H]1CC[C@@H]1[C@@H]2CC[C@]2(C)[C@@H](C3=CC(=O)OC3)C[C@@H](O)[C@]12O` was tested, and the MIC was > 80 µg/mL.
For `C[C@]12[C@H](O)C[C@H]3[C@@H](CC[C@H]4C[C@@H](O)CC[C@@]43CO)[C@@]1(O)CC[C@@H]2C1=CC(=O)OC1`, the MIC was > 80 µg/mL.
With `C[C@@H]1C[C@@H](O)[C@]2(O)O[C@@H]3C[C@@]4(C=O)[C@@H](CC[C@@H]5[C@@H]4CC[C@]4(C)[C@@H](C6=CC(=O)OC6)CC[C@]54O)C[C@H]3O[C@@H]2O1` [CALACTIN] the MIC was > 80 µg/mL.
In the case of `C[C@@H]1C[C@@]2(N=CCS2)[C@]2(O)O[C@@H]3C[C@@]4(C=O)[C@@H](CC[C@@H]5[C@@H]4CC[C@]4(C)[C@@H](C6=CC(=O)OC6)CC[C@]54O)C[C@H]3O[C@@H]2O1` [USCHARIN], the MIC is reported as > 80 µg/mL.
